Results as given in ChEMBL document CHEMBL4725416, “Structure-Based Discovery of Novel Ligands for the Orexin 2 Receptor” (J Med Chem, 2020).
The source made the active and inactive calls.

Assays:
[1] = target: T1, Orexin/Hypocretin receptor type 1 (Homo sapiens, UniProt O43613); assay: (§1) Displacement of [3H]-[…] from human orexin 1 receptor expressed in CHO cells incubated for 2 hrs by whole cell radioligand binding assay; type: cell-based
T1 sequence (O43613 whole entry): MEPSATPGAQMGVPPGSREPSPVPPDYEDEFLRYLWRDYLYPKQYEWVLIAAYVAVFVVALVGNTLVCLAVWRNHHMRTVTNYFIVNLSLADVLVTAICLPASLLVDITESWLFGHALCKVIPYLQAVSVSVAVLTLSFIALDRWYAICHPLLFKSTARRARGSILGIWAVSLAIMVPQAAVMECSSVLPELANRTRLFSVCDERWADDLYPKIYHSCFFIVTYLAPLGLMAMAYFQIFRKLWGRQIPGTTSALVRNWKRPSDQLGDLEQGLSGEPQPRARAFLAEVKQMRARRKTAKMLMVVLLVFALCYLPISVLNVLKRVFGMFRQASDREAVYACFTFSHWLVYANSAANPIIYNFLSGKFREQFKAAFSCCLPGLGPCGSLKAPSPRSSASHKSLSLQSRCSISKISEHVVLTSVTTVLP

[2] = target: T2, Orexin receptor type 2 (Homo sapiens) (UniProt O43614); assay: Agonist activity at human orexin 2 receptor expressed in CHO cells assessed as increase in calcium mobilization incubated for 120 secs by Fluo-4AM dye based fluorescence assay; type: functional, cell-based; conditions: time 120.0 sec
T2 sequence (whole entry): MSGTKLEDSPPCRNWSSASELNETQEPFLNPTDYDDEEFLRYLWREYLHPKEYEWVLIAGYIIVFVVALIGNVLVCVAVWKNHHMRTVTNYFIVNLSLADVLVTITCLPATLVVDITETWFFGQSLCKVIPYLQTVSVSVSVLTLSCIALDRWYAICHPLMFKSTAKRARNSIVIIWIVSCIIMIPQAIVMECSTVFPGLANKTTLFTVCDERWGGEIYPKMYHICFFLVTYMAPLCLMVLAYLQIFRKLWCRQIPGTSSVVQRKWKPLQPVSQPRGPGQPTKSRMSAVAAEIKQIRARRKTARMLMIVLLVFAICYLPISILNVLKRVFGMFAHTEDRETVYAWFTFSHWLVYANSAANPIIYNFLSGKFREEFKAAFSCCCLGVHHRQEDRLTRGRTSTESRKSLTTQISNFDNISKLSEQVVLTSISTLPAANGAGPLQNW

[3] = target: T3, Orexin/Hypocretin receptor type 1 (Homo sapiens) (UniProt O43613); conditions: CHO, time 120.0 sec
T3 sequence (whole entry): T1 sequence (O43613 whole entry)
Description: Agonist activity at human orexin 1 receptor expressed in CHO cells assessed as increase in calcium mobilization incubated for 120 secs by Fluo-4AM dye based fluorescence assay

[4] = (§2) Displacement of [3H]-EMPA from human orexin 2 receptor expressed in CHO cells incubated for 2 hrs by whole cell radioligand binding assay; type: cell-based
[5] = species on record: Homo sapiens; assay: Displacement of [3H]-EMPA from human orexin 2 receptor expressed in CHO cells incubated for 2 hrs by whole cell radioligand binding assay relative to control; type: cell-based; design: concentration or dose not given beside the values; conditions: dose or concentration not given here
[6] = target: T3, Orexin/Hypocretin receptor type 1 (Homo sapiens); assay: as §1; type: cell-based
[7] = species on record: Homo sapiens; assay: as §2; type: cell-based

Row | SMILES | pEC50 [2] | pKi [6] | pKi [7] | also measured
1 | O=C(c1ccccc1Cc1ccccc1)N1CCN(Cc2csc(-c3ccco3)n2)CC1 | inactive |  |  | Ki [1]: 14.8 µM
2 | COc1ccc([C@H]2CCCN2C(=O)c2ccc(OCc3cn4ccccc4n3)cc2)c(OC)c1 | inactive |  |  | Ki [1]: 20.9 µM
3 | Cc1ccc(-c2nc(CC(=O)N(C)Cc3c(F)cccc3Cl)cs2)o1 | inactive |  |  | pEC50 [3]: inactive; Ki [1]: 11.7 µM; pKi [4]: 5.55
4 | Cc1ccccc1CN(C)C(=O)Cc1csc(-c2cccc(F)c2)n1 | inactive |  |  | pEC50 [3]: inactive; Ki [1]: 3.24 µM; pKi [4]: 6.18
5 | O=C(Nc1cccc(/C=C/c2ccccn2)c1)c1occc1COc1ccccc1 |  |  |  | Ki [1]: 7.94 µM; inhibition [5]: 39.9%; pKi [4]: 4.98
6 | Cc1ccc(C(=O)[C@H](C)Oc2cccc(N3C(=O)[C@H]4[C@H](C)C=CC[C@@H]4C3=O)c2)cc1 |  |  |  | Ki [1]: 7.76 µM; inhibition [5]: 49.9%; pKi [4]: 4.97
7 | Cc1ccc(-c2nc(CC(=O)N(C)[C@@H](C)c3ccc(F)cc3)cs2)o1 | inactive |  |  | pEC50 [3]: inactive; Ki [1]: 17 µM; pKi [4]: 5.53
8 | O=C(COc1ccc(-c2ccccc2)cc1)c1ccc(O)cc1O | inactive | inactive | inactive | 
9 | O=C(c1cn(Cc2ccc(F)cc2)cc2c(=O)n(-c3ccccc3)nc1-2)N1CCc2ccccc21 |  | inactive | inactive | 
10 | O=C(c1sc2cccc(F)c2c1Cl)N1CCN(Cc2ccco2)CC1 | inactive |  |  | 
11 | Cc1ccc(CSCc2ccc(-c3nc(-c4ccccn4)no3)o2)cc1 | inactive |  |  | Ki [1]: 15.5 µM; inhibition [5]: 79.2%; pKi [4]: 5.07
12 | N[C@H]1CCCN(C(=O)c2cc(-c3ccccc3)nc3ccccc23)CC1 |  | inactive | inactive | 
13 | C[C@@H](Oc1ccc2c(c1)oc(=O)c1ccccc12)C(=O)c1ccccc1 | inactive |  |  | pEC50 [3]: inactive; Ki [1]: 5.37 µM; inhibition [5]: 63.7%; pKi [4]: 5.27
14 | COc1cc([C@H]2c3c(oc4ccc(Cl)cc4c3=O)C(=O)N2Cc2ccccc2)ccc1O |  | inactive | inactive | 
15 | O=C(C1=NN([C@H]2CCS(=O)(=O)C2)C(=O)CC1)N(CCc1ccccc1)c1nc2ccccc2s1 | inactive |  |  | IC50 [1]: > 100 µM
16 | COc1ccc(CN2C(=O)c3ccccc3C2=O)cc1C(=O)OCc1cc(=O)n2ccsc2n1 |  | inactive | inactive | 
17 | Cc1ccc(C)c(OCC(=O)Oc2ccc3c(C)cc(=O)oc3c2)c1 |  | inactive | inactive | 
18 | Cc1ccc(C(=O)Oc2ccc(N3C(=O)[C@H]4C5C=CC(C6CC65)[C@@H]4C3=O)cc2)cc1 (stereo partly specified) |  | inactive | inactive | 
19 | Cc1ccccc1OC[C@@H]1CCCN(C(=O)CCc2nc(-c3ccccn3)no2)C1 | inactive |  |  | Ki [1]: 15.1 µM
20 | Cc1cccc(-n2cc(C(=O)N3CCC[C@@H]([n+]4cc[nH]c4)C3)nn2)c1 |  | inactive | inactive | 
21 | O=S(=O)(c1ccc(-c2noc(-c3ccco3)n2)cc1)N1CCCCC1 |  | inactive | inactive | 
22 | Cc1ccc(Oc2ncccc2NC(=O)c2ccc3c(c2)OCCCO3)c2c1CCC2 |  |  |  | Ki [1]: 5.13 µM; inhibition [5]: 67.1%; pKi [4]: 5.19
23 | CCCN1C(C)=NS(=O)(=O)c2cc(C(=O)N3CCN(Cc4ccccc4)CC3)ccc21 |  | inactive | inactive | 
24 | Cc1nc2cc(F)cc(C(=O)NCCOc3ccc4ccccc4c3)c2nc1C |  |  |  | inhibition [5]: 61.7%; pKi [4]: 5.83

Row | SMILES | pEC50 [2] | pKi [6] | pKi [7] | also measured
25 | CCOc1ccc(-c2n[nH]c3c2[C@H](c2ccccc2OC)NC3=O)cc1 |  | inactive | inactive | 
26 | COc1ccc(-n2nc(C(=O)NCCc3ccc(Cl)cc3)c3c4ccccc4n(C)c3c2=O)cc1 |  | inactive | inactive | 
27 | O=C(CCc1nc(-c2ccccn2)no1)OCc1ccccn1 |  | inactive | inactive | 
28 | O=C(c1ccc(-c2nc3ccccc3s2)o1)N(Cc1ccco1)Cc1ccco1 | inactive |  |  | pEC50 [3]: inactive; Ki [1]: 3.55 µM; pKi [4]: 5.5
29 | COc1cccc(C(=O)COc2ccc3c(C)c(C)c(=O)oc3c2)c1 |  | inactive | inactive | 
30 | O=C1NC(=O)C(=Cc2c(OCc3ccccc3F)ccc3ccccc23)C(=O)N1 | inactive |  |  | 
31 | Cc1[nH]c2ccccc2c1[C@@H]1c2ccccc2C(=O)N1CCC(=O)N1CCN(c2ccccn2)CC1 | inactive |  |  | IC50 [1]: > 100 µM
32 | O=C(c1ccc(Cl)c(N2CCCC2=O)c1)N1CCN(Cc2cc(=O)n3ccsc3n2)CC1 |  | inactive | inactive | 
33 | Cc1ccc(N2CCCN(C(=O)c3cn(C)c4ccccc34)CC2)nn1 | inactive |  |  | IC50 [1]: > 100 µM
34 | C[C@H](Sc1nc(-c2ccco2)nc2ccccc12)C(=O)N1CCc2ccccc2C1 | inactive |  |  | pEC50 [3]: inactive; Ki [1]: 8.91 µM; pKi [4]: 5.5
35 | O=C(Oc1cccc2c(OC(=O)c3ccco3)cccc12)c1ccco1 |  | inactive | inactive | 
36 | O=C1c2ccc([N+](=O)[O-])cc2C(=O)N1c1cccc(-c2nc3ccccc3c(=O)o2)c1 |  | inactive | inactive | 
37 | Cc1ccc2[nH]c(C)c(CC(=O)N(Cc3cccnc3)C3CC3)c2c1 | inactive |  |  | pEC50 [3]: inactive
38 | N[C@H]1C[C@@H](C(=O)O)N(C(=O)c2ccccc2OCc2ccccc2)C1 |  | inactive | inactive | 
39 | COc1cccc(COc2ccc(-c3noc(-c4ccco4)n3)cc2OC)c1 |  | inactive | inactive | 
40 | O=C1N(Cc2ccc(F)cc2)C[C@H]2CN(Cc3nccs3)CCN12 |  | inactive | inactive | 
41 | Cc1noc(CN2CCN(C(=O)c3cc4ccccn4c3)CC2)n1 |  | inactive | inactive | 
42 | CN(Cc1ccncc1)C(=O)c1ccc(COc2ccccc2C#N)o1 |  | inactive | inactive | 
43 | COc1cc([C@H]2c3c(oc4ccccc4c3=O)C(=O)N2Cc2ccc(F)cc2)cc(OC)c1OC |  | inactive | inactive | 
44 | COc1ccc2c(c1)c1c(c(=O)n(Cc3ccccc3)c(=O)n1Cc1cc(=O)n3ccccc3n1)n2C |  | inactive | inactive | 
45 | O=C(c1ccc(Cl)c(N2CCCC2=O)c1)N1CCN(Cc2ccc3c(c2)CCO3)CC1 |  | inactive | inactive | 
46 | C[C@H](Cc1cnccn1)n1cc(-c2ccnc3ccccc23)nn1 |  | inactive | inactive | 
47 | Nc1cc(-c2ncccc2C(=O)N2C[C@H]3CC[C@@H]2C3)c2cc[nH]c2n1 |  | inactive | inactive | 
